For series [1], the target named is T1, β-catenin (Homo sapiens, UniProt P35222).
T1 sequence (P35222 1-781): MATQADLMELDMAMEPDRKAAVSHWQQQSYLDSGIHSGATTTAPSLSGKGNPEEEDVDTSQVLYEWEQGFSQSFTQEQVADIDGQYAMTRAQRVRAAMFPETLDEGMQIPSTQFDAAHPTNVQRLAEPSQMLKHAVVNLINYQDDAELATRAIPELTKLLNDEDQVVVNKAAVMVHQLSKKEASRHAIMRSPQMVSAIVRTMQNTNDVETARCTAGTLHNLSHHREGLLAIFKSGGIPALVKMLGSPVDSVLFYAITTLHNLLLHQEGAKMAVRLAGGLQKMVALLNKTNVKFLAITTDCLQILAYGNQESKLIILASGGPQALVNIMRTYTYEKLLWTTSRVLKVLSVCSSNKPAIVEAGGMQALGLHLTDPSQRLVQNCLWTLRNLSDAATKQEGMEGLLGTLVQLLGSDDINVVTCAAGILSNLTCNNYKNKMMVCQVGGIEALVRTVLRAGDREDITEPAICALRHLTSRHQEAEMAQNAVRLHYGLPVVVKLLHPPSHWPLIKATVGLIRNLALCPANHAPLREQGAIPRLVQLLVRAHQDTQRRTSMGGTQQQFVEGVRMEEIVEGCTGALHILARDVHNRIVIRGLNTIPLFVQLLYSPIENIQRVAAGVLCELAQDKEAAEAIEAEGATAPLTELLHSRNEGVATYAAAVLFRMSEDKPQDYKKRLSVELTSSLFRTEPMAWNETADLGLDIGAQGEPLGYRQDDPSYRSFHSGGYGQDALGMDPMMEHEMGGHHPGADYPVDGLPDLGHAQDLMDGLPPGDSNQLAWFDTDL
The series is described as follows: KD50 measurement using competitive fluorescence polarization (FP) with labelled TCF4. The series is classed as binding. Particulars: fluorescence polarization, β-catenin; for Kd: read-out: β-Cat FP KD. The gist of the method: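 First, β-catenin at 100 nM is mixed with 5 nM labelled TCF4 at room temperature. Next, compound is added across serial dilutions (10 nM to 30 uM). Finally, fluorescence polarization is measured (ex 470 nm, em 520 nm); experiments are done three times.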
(Polarisation of emitted light reports the rotation of a fluorescent probe.)

Series [2] has as its system mouse EMS lesion cells. In kind it is cell-based. The procedure:
(§1) Peptides inhibiting β-catenin cause decreased cell viability in a colon cancer cell line (SW480) and endometriosis lesions excised from a disease animal model. Peptides from libraries described herein are characterized in their effect on cell viability, as measured using a luminescent cell viability assay (Cell Titer-Glo®, Promega, Madison, WI) and expressed as IC50 in Table 5. Peptide inhibitors were tested for their ability to inhibit cellular proliferation across 2 different β-catenin expressing pathogenic cell lines: a colon cancer cell line (SW480) and/or mouse EMS lesion cells derived from mouse model of disease. Both cells lines are naturally known to express high levels of β-catenin. Cell lines were incubated with varying concentrations of peptide concentration and assessed for viability after day 5 and 7 days. The CellTiter-Glo® Luminescent Cell Viability Assay (Promega) is used to detect viable cells. IC50 values are graphed and calculated using Prism software (GraphPad) based on the cell viability readouts. IC50 is used to assess inhibition of cell proliferation by peptide concentration and is used to calculate the inhibitory effect of each peptide across each line. The results are used to assess the therapeutic potency of the peptides. In the SW480 cell line, peptide inhibitors from Family 1 (SEQ ID NO:264) and Family 2 (SEQ ID NO:396) were added daily to the cell growth medium. After 7 days, cell viability was assessed with the Cell-Titer Glo kit (Promega, Madison, WI). […] IC50 was calculated for peptides based on the concentration at which 50% viability was observed (Table 5).

For series [3], the system named is colon cancer cell line (SW480). In kind it is cell-based. The procedure: as §1
Series [4] has as its target Wnt-responsive promoter (TCF/LEF). The series is described as follows: Wnt-dependent luciferase reporter assay. In kind it is cell-based, murine. The gist of the method: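 EC50 (uM) derived from inhibition of luminescence in Wnt3a-stimulated murine 3T3 cells expressing luciferase under a TCF/LEF promoter, with peptides added across a concentration range and vehicle as control.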
(A reporter such as luciferase makes a cellular process visible.)

For series [5], the system named is non-Wnt responsive cells.
For series [6] the following is noted: % Viability non-Wnt responsive cells.
Series [7] deals with EMS lesion. To be noted: across the subtypes of EMS; cited from earlier work.

Where a SMILES comes first, the peptide text is derived from it. A value given as a limit tells only on which side of the number the result lay.

As a reminder, the Kd is the constant that tells how readily two partners part at equilibrium. Broadly, the IC50 is the concentration that inhibits the measured activity by half. A low value points to greater potency. Turning to `CCCCCCCCCCCCCCCCCC(=O)N[C@@H](Cc1c[nH]c2ccccc12)C(=O)N(C)[C@@H](Cc1c[nH]c2ccccc12)C(=O)N[C@@H](CCC(=O)O)C(=O)NC(C)(CO)C(=O)N[C@H](C(=O)N[C@@H](CC(C)C)C(=O)N[C@@H](CC(=O)O)C(=O)N[C@@H](CCC(=O)O)C(=O)N[C@@H](Cc1c[nH]cn1)C(=O)NC(C)(C(=O)N[C@@H](CCC(N)=O)C(=O)N[C@@H](CCCNC(=N)N)C(=O)N[C@H](C(=O)N[C@@H](Cc1c[nH]c2ccccc12)C(=O)O)C(C)C)C(C)C)[C@@H](C)CC` (single isomer, unassigned) [393/500], the Kd in series [1] was over 30 µM. For the same compound, the figures for the IC50 in series [2] and in series [3] were 5 µM and 1.7 µM, respectively.
As a reminder, the EC50 is the concentration needed to bring the measured effect to its halfway point. In the case of `CCCCCCCCCCCCCCCC(=O)N[C@@H](Cc1c[nH]c2ccccc12)C(=O)N(C)[C@@H](Cc1c[nH]c2ccccc12)C(=O)N[C@@H](CCC(=O)O)C(=O)NC(C)(CO)C(=O)N[C@H](C(=O)N[C@@H](CC(C)C)C(=O)N[C@@H](CC(=O)O)C(=O)N[C@@H](CCC(=O)O)C(=O)N[C@@H](Cc1c[nH]cn1)C(=O)NC(C)(C(=O)N[C@@H](CCC(N)=O)C(=O)N[C@@H](CCCNC(=N)N)C(=O)N[C@H](C(=O)N[C@@H](Cc1c[nH]c2ccccc12)C(=O)NCC(=O)O)C(C)C)C(C)C)[C@@H](C)CC` (single isomer, unassigned) [compound 396], the IC50 in series [2] was found to be 15 µM; in series [3], 2.9 µM. The compound further gave an EC50 in series [4] of 7.5 to 15 µM.
For the compound `CC[C@H](C)[C@H](NC(=O)[C@H](CC(C)C)NC(=O)[C@H](Cc1ccccc1)NC(=O)[C@H](Cc1c[nH]c2ccccc12)NC(=O)[C@@H](N)CCSC)C(=O)N[C@@H](CS)C(=O)N[C@@H](Cc1ccccc1)C(=O)N[C@@H](Cc1c[nH]c2ccccc12)C(=O)NCC(=O)O` [compound 42] (H-MWFLICFWG-OH), in series [1], the “β-Cat FP Hill slope” value is listed as 0.96 and the dissociation constant Kd was under 0.4 µM. The “% Viability non-Wnt responsive cells” value in series [5] is 108.69%. In series [4], this compound gave a concentration giving a half-maximal response (EC50) of under 7.5 µM.
`CC[C@H](C)[C@H](NC(=O)[C@H](CC(C)C)NC(=O)[C@@H](NC(=O)[C@H](Cc1c[nH]c2ccccc12)NC(=O)[C@@H](N)CCSC)[C@@H](C)CC)C(=O)N[C@@H](CO)C(=O)N[C@@H](Cc1ccccc1)C(=O)N[C@@H](Cc1c[nH]c2ccccc12)C(=O)NCC(=O)O` [compound 43] (H-MWILISFWG-OH): in series [1], the “β-Cat FP Hill slope” value is 0.92 and the Kd was in the range of 0.4 to 1 µM. In series [5], the “% Viability non-Wnt responsive cells” value is given as 98.97%. The same compound displayed a concentration giving a half-maximal response (EC50) in series [4] of under 7.5 µM.
For `CC[C@H](C)[C@@H]1NC(=O)[C@H](CC(C)C)NC(=O)[C@H](Cc2ccccc2)NC(=O)[C@H](Cc2c[nH]c3ccccc23)NC(=O)[C@@H](N)CCCCNC(=O)CC[C@@H](C(=O)N[C@@H](Cc2c[nH]c3ccccc23)C(=O)NCC(=O)O)NC(=O)[C@H](CS)NC1=O` [compound 181] (HELM PEPTIDE1{K.W.F.L.I.C.E.W.G}$PEPTIDE1,PEPTIDE1,1:R3-7:R3$$$V2.0), the “β-Cat FP Hill slope” value in series [1] was 1.15. Also, the “% Viability non-Wnt responsive cells” value in series [5] is reported as 89.16%. For the same compound, the EC50 in series [4] was over 30 µM.
One may read the viability as a read-out of living cells in per cent, often relative to untreated cells. On to `CCCC[C@@H]1NC(=O)[C@@H](NC(C)=O)CCCCNC(=O)C[C@@H](C(=O)O)NC(=O)[C@H](Cc2c[nH]c3ccccc23)NC(=O)[C@H](C)NC(=O)[C@H](CC)NC(=O)[C@H]([C@@H](C)CC)NC(=O)[C@H](CC(C)C)NC(=O)[C@H](CC2CCCCC2)NC(=O)[C@H](Cc2c[nH]c3ccccc23)NC1=O` [compound 215] (HELM PEPTIDE1{[ac].K.[Nle].W.[Cha].L.I.[Abu].A.W.D}$PEPTIDE1,PEPTIDE1,2:R3-11:R3$$$V2.0), for which the “β-Cat FP Hill slope” value in series [1] stood at 1.69. For the same compound, the viability in series [6] was 106%. In series [2], the IC50 is over 30 µM. Further, the EC50 in series [4] was over 30 µM.
Regarding `CC[C@@H]1NC(=O)[C@H]([C@@H](C)CC)NC(=O)[C@H](CC(C)C)NC(=O)[C@H](CC2CCCCC2)NC(=O)[C@H](Cc2c[nH]c3ccccc23)NC(=O)[C@@H](NC(C)=O)CCCCNC(=O)C[C@@H](C(=O)O)NC(=O)[C@H](Cc2c[nH]c3ccccc23)NC(=O)[C@H](C)NC1=O` [compound 261] (HELM PEPTIDE1{[ac].K.W.[Cha].L.I.[Abu].A.W.D}$PEPTIDE1,PEPTIDE1,2:R3-10:R3$$$V2.0), in series [1], the “β-Cat FP Hill slope” value is given as 3 and the Kd lay in the range of 0.4 to 1 µM. Further, the IC50 in series [2] amounted to 7.7 µM. Also, the half-inhibitory concentration (IC50) in series [3] was found to be 4 µM. In addition, in series [4], the EC50 was 7.5 to 15 µM.
On to `CC[C@@H]1NC(=O)[C@H]([C@@H](C)CC)NC(=O)[C@H](CC(C)C)NC(=O)[C@H](C2CCCCC2)NC(=O)[C@H](Cc2c[nH]c3ccccc23)NC(=O)[C@@H](NC(C)=O)CCCCNC(=O)C[C@@H](C(=O)O)NC(=O)[C@H](Cc2c[nH]c3ccccc23)NC(=O)[C@H](C)NC1=O` [compound 262] (HELM PEPTIDE1{[ac].K.W.[O=C([C@@H](N[*:1])C1CCCCC1)[*:2]].L.I.[Abu].A.W.D}$PEPTIDE1,PEPTIDE1,2:R3-10:R3$$$V2.0), for which the “β-Cat FP Hill slope” value in series [1] was determined as 3. The Kd in series [1] lay in the range of 0.4 to 1 µM. For the same compound, the figures for the IC50 in series [2] and in series [3] were 26.3 µM and 5 µM, respectively.
For the compound `CCCCCCCCCCCC(=O)N[C@@H](Cc1c[nH]c2ccccc12)C(=O)N(C)[C@@H](C)C(=O)N[C@@H](CCC(N)=O)C(=O)N[C@H]1CCCCNC(=O)C[C@@H](C(=O)N[C@@H](Cc2c[nH]cn2)C(=O)N[C@H](C(=O)N[C@@H](CCC(N)=O)C(=O)N[C@@H](CCCNC(=N)N)C(=O)N[C@H](C(=O)N[C@@H](Cc2c[nH]c3ccccc23)C(=O)NCC(N)=O)C(C)C)C2CCCCC2)NC(=O)[C@H](CC(=O)O)NC(=O)[C@H](CC(C)C)NC(=O)[C@H]([C@@H](C)CC)NC1=O` [compound 432] (HELM PEPTIDE1{[CCCCCCCCCCCC(=O)[*:2]].W.[meA].Q.K.I.L.D.D.H.[O=C([C@@H](N[*:1])C1CCCCC1)[*:2]].Q.R.V.W.G.[am]}$PEPTIDE1,PEPTIDE1,5:R3-9:R3$$$V2.0), in series [1], the Kd is under 0.4 µM. The figures for the half-inhibitory concentration (IC50) in series [2] and in series [3] were 0.8 µM and 14.9 µM, respectively.
`O=C(Nc1ccc([N+](=O)[O-])cc1Cl)c1cc(Cl)ccc1O` [niclosamide]: in series [7], the EMS lesion progression entry is given as “successfully reversed”.
As for CGP049090, in series [7], the EMS lesion progression result is given as “successfully reversed”.
As for “Lauroyl-NH-W-NMeA-QK*ILDE*H-Chg-E*DVWK*-NH2 (WAQKILDEHGEDVWK; HELM PEPTIDE1{[CCCCCCCCCCCC(=O)[*:2]].W.[meA].Q.K.I.L.D.E.H.[O=C([C@@H](N[*:1])C1CCCCC1)[*:2]].E.D.V.W.K.[am]}$PEPTIDE1,PEPTIDE1,12:R3-16:R3|PEPTIDE1,PEPTIDE1,5:R3-9:R3$$$V2.0; SMILES CCCCCCCCCCCC(=O)N[C@@H](Cc1c[nH]c2ccccc12)C(=O)N(C)[C@@H](C)C(=O)N[C@@H](CCC(N)=O)C(=O)N[C@H]1CCCCNC(=O)CC[C@@H](C(=O)N[C@@H](Cc2c[nH]cn2)C(=O)N[C@H](C(=O)N[C@H]2CCC(=O)NCCCC[C@@H](C(N)=O)NC(=O)[C@H](Cc3c[nH]c4ccccc34)NC(=O)[C@H](C(C)C)NC(=O)[C@H](CC(=O)O)NC2=O)C2CCCCC2)NC(=O)[C@H](CC(=O)O)NC(=O)[C@H](CC(C)C)NC(=O)[C@H]([C@@H](C)CC)NC1=O; listed as Homo sapiens) [SEQ ID NO: 465]”, the “Cell growth / viability” value in series [2] (mouse EMS lesion cells, peptide added daily 0.024-25 uM, 5 days) is “inhibited cell growth”.
With PKF 115-584, the EMS lesion progression result in series [7] is on record as “successfully reversed”.

The values are drawn from patent US12441768B2, “Compositions and methods for treating endometriosis” (EndoMet Biosciences, Inc., priority 2018, dated 2025).
